According to US8188139B2, “Heterocyclic-substituted phenyl methanones” (Hoffman-La Roche Inc., priority 2005, dated 2012):

The compounds below were run against T1, mGlyT-1b (Mus musculus, UniProt P28571) (assay: Glycine uptake inhibition assay (mGlyT-1b)). Conditions: inhibition of [3H]-glycine uptake in Flp-in-CHO cells transfected with mGlyT-1b cDNA; 20 min preincubation at 22° C.; read-out: IC50 (μM) at GlyT-1.
T1 construct: host or cells: Flp-in-CHO
T1 sequence (P28571 1-651 isoform P28571-2): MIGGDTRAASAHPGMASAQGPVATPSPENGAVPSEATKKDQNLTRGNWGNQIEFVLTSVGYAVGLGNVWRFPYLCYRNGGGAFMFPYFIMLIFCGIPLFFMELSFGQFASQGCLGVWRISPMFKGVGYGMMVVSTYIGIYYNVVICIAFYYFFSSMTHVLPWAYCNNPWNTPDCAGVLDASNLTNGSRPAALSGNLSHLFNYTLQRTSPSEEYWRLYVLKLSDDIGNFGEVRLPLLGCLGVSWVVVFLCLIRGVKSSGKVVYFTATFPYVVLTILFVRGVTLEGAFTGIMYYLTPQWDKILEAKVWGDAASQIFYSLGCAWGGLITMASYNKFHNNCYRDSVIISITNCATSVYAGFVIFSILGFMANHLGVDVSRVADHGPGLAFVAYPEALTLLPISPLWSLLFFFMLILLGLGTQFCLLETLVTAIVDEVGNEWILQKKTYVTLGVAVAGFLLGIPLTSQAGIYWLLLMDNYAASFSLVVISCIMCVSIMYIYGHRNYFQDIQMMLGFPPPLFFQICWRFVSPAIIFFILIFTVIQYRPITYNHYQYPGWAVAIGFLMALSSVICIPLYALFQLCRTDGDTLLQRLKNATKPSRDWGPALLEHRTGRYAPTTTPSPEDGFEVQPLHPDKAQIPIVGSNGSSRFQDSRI
Assay type: cell-based
Summary of the method: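 Flp-in CHO cells stably expressing mouse GlyT-1b were preincubated with inhibitor (concentration range) for 20 min at 22° C. in pH 7.4 uptake buffer; nonspecific uptake defined with 10 mM glycine. [3H]-glycine 60 nM plus 25 μM unlabelled glycine was then added; cell-associated radioactivity counted by scintillation and IC50 derived.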

| Structure (SMILES) | IC50 |
| --- | --- |
| CC(C)COc1ccc(S(C)(=O)=O)cc1C(=O)N1Cc2cc(Cl)c(N3CCOCC3)cc2C1 [Example 248, (5-Chloro-6-morpho-lin-4-yl-1,3-dihydro-isoindol-2-yl)-(2-isobutoxy-5-methanesulfonyl-phenyl)-methanone] | 0.026 µM |
| C[C@H](Oc1ccc(S(C)(=O)=O)cc1C(=O)N1Cc2ccc(C(F)(F)F)cc2C1)C(F)(F)F [Example 15, [5-Methanesulfonyl-2-((S)-2,2,2-trifluoro-1-methyl-ethoxy)-phenyl]-(5-trifluoromethyl-1,3-dihydro-isoindol-2-yl)-methanone] | 0.021 µM |
| Cc1ccsc1-c1ccc2c(c1)CN(C(=O)c1cc(S(C)(=O)=O)ccc1O[C@@H](C)C(F)(F)F)C2 [Example 332, [5-Methanesulfonyl-2-(2,2,2-trifluoro-1-methyl-ethoxy)-phenyl]-[5-(3-methyl-thiophen-2-yl)-1,3-dihydro-isoindol-2-yl]-methanone] | 0.041 µM |
| C[C@H](Oc1ccc(S(C)(=O)=O)cc1C(=O)N1Cc2ccc(C3CCCOC3)cc2C1)C(F)(F)F (mixture of isomers) [Example 312, [5-Methanesulfonyl-2-((S)-2,2,2-trifluoro-1-methyl-ethoxy)-phenyl]-[5-(tetrahydro-pyran-3-yl)-1,3-dihydro-isoindol-2-yl]-methanone] | 0.032 µM |
| Cc1cc2c(cc1C(F)(F)F)CN(C(=O)c1cc(S(C)(=O)=O)ccc1O[C@@H](C)C(F)(F)F)C2 [Example 99, [5-Methanesulfonyl-2-((S)-2,2,2-trifluoro-1-methyl-ethoxy)-phenyl]-(5-methyl-6-trifluoromethyl-1,3-dihydro-isoindol-2-yl)-methanone] | 0.042 µM |
| CS(=O)(=O)c1ccc(-c2ccc(F)c(F)c2)c(C(=O)N2Cc3cnc(C(F)(F)F)cc3C2)c1 [Example 146, (3′,4′-Difluoro-4-methanesulfonyl-biphenyl-2-yl)-(6-trifluoromethyl-1,3-dihydro-pyrrolo[3,4-c]pyridin-2-yl)-methanone] | 0.047 µM |
| CS(=O)(=O)c1ccc(OCC2CCC2)c(C(=O)N2Cc3cc(C(F)(F)F)cnc3C2)c1 [Example 124, (2-Cyclobutyl-methoxy-5-methane-sulfonyl-phenyl)-(3-trifluoromethyl-5,7-dihydro-pyrrolo[3,4-b]pyridin-6-yl)-methanone] | 0.03 µM |
| CC(C)Sc1ccc(S(C)(=O)=O)cc1C(=O)N1Cc2cc(Cl)c(Cl)cc2C1 [Example 16, (5,6-Dichloro-1,3-dihydro-isoindol-2-yl)-(2-isopropylsulfanyl-5-methanesulfonyl-phenyl)-methanone] | 0.048 µM |
| C[C@H](Oc1ccc(S(C)(=O)=O)cc1C(=O)N1Cc2ccc(N3[C@@H]4CC[C@H]3COC4)cc2C1)C(F)(F)F [Example 295, [5-Methanesulfonyl-2-((S)-2,2,2-trifluoro-1-methyl-ethoxy)-phenyl]-[(1R,5S)-5-(3-oxa-8-aza-bicyclo[3.2.1]oct-8-yl)-1,3-dihydro-isoindol-2-yl]-methanone] | 0.04 µM |
| CS(=O)(=O)c1ccc(OCC(F)(F)C(F)(F)F)c(C(=O)N2Cc3ccc(C4CCOC4)cc3C2)c1 (racemic) [Example 361, rac-[5-Methanesulfonyl-2-(2,2,3,3,3-pentafluoro-propoxy)-phenyl]-[5-(tetrahydro-furan-3-yl)-1,3-dihydro-isoindol-2-yl]-methanone] | 0.002 µM |
| C[C@H](Oc1ccc(S(C)(=O)=O)cc1C(=O)N1Cc2ccc(-c3ccc(F)cc3)nc2C1)C(F)(F)F [Example 382, [2-(4-Fluoro-phenyl)-5,7-dihydro-pyrrolo[3,4-b]pyridin-6-yl]-[5-methanesulfonyl-2-((S)-2,2,2-trifluoro-1-methyl-ethoxy)-phenyl]-methanone] | 0.024 µM |
| Cc1cc2c(cc1Cl)CN(C(=O)c1cc(S(C)(=O)=O)ccc1O[C@H](C)C(F)(F)F)C2 [Example 49, (5-Chloro-6-methyl-1,3-dihydro-isoindol-2-yl)-[5-methanesulfonyl-2-((R)-2,2,2-trifluoro-1-methyl-ethoxy)-phenyl]-methanone] | 0.034 µM |
| CS(=O)(=O)c1ccc(OCC(F)(F)C(F)(F)F)c(C(=O)N2Cc3cc(Cl)c(OC4CCOCC4)cc3C2)c1 [Example 380, [5-Chloro-6-(tetrahydro-pyran-4-yloxy)-1,3-dihydro-isoindol-2-yl]-[5-methanesulfonyl-2-(2,2,3,3,3-pentafluoro-propoxy)-phenyl]-methanone] | 0.005 µM |
| CC(C)Oc1ccc(S(C)(=O)=O)cc1C(=O)N1Cc2ccc(C3CCOC3)cc2C1 (racemic) [Example 360, rac-(2-Isopropoxy-5-methanesulfonyl-phenyl)-[5-(tetrahydro-furan-3-yl)-1,3-dihydro-isoindol-2-yl]-methanone] | 0.022 µM |
| CCOc1cc2c(cc1C(F)(F)F)CN(C(=O)c1cc(S(C)(=O)=O)ccc1OC(C)C)C2 [Example 240] | 0.0456 µM |
| CS(=O)(=O)c1ccc(-c2ccc(F)cc2)c(C(=O)N2Cc3cnc(C(F)(F)F)cc3C2)c1 [Example 121, (4′-Fluoro-4-methanesulfonyl-biphenyl-2-yl)-(6-trifluoromethyl-1,3-dihydro-pyrrolo[3,4-c]pyridin-2-yl)-methanone] | 0.047 µM |
| CS(=O)(=O)c1ccc(OCC(F)(F)C(F)F)c(C(=O)N2Cc3cc(C(F)(F)F)cnc3C2)c1 [Example 158, [5-Methanesulfonyl-2-(2,2,3,3-tetrafluoro-propoxy)-phenyl]-(3-trifluoromethyl-5,7-dihydro-pyrrolo[3,4-b]pyridin-6-yl)-methanone] | 0.024 µM |
| C[C@H](Oc1ccc(S(C)(=O)=O)cc1C(=O)N1Cc2ccc(C3CCOC3)cc2C1)C(F)(F)F (stereo partly drawn) [Example 304, [5-Methanesulfonyl-2-((S)-2,2,2-trifluoro-1-methyl-ethoxy)-phenyl]-[5-(tetra-hydro-furan-3-yl)-1,3-dihydro-isoindol-2-yl]-methanone] | 0.008 µM |
| COc1cc2c(cc1Cl)CN(C(=O)c1cc(S(C)(=O)=O)ccc1O[C@@H](C)C(F)(F)F)C2 [Example 27, (5-Chloro-6-methoxy-1,3-dihydro-isoindol-2-yl)-[5-methanesulfonyl-2-((S)-2,2,2-trifluoro-1-methyl-ethoxy)-phenyl]-methanone] | 0.022 µM |
| CC(C)COc1ccc(S(C)(=O)=O)cc1C(=O)N1Cc2ccc(C(F)(F)F)cc2C1 [Example 35, (2-Isobutoxy-5-methanesulfonyl-phenyl)-(5-trifluoromethyl-1,3-dihydro-isoindol-2-yl)-methanone] | 0.028 µM |
| C[C@H](Oc1ccc(S(C)(=O)=O)cc1C(=O)N1Cc2ccc(-c3ccncc3)cc2C1)C(F)(F)F [Example 315, [5-Methanesulfonyl-2-((S)-2,2,2-trifluoro-1-methyl-ethoxy)-phenyl]-(5-pyridin-4-yl-1,3-dihydro-isoindol-2-yl)-methanone] | 0.017 µM |
| Cc1cc2c(cc1C1CCOCC1)CN(C(=O)c1cc(S(C)(=O)=O)ccc1O[C@@H](C)C(F)(F)F)C2 [Example 300] | 0.017 µM |
| COc1cc2c(cc1Cl)CN(C(=O)c1cc(S(C)(=O)=O)ccc1O[C@H](C)C(F)(F)F)C2 [Example 218, (5-Chloro-6-methoxy-1,3-dihydro-isoindol-2-yl)-[5-methane-sulfonyl-2-((R)-2,2,2-trifluoro-1-methyl-ethoxy)-phenyl]-methanone] | 0.04 µM |
| CCSc1ccc2c(c1)CN(C(=O)c1cc(S(C)(=O)=O)ccc1O[C@@H](C)C(F)(F)F)C2 [Example 32, (5-Ethylsulfanyl-1,3-dihydro-isoindol-2-yl)-[5-methanesulfonyl-2-((S)-2,2,2-trifluoro-1-methyl-ethoxy)-phenyl]-methanone] | 0.037 µM |
| C[C@H](Oc1ccc(S(C)(=O)=O)cc1C(=O)N1Cc2ccc(-c3cccs3)cc2C1)C(F)(F)F [Example 344] | 0.02 µM |
| CS(=O)(=O)c1ccc(OCC(F)(F)C(F)(F)F)c(C(=O)N2Cc3cc(F)c(OC4CCOCC4)cc3C2)c1 [Example 379, [5-Fluoro-6-(tetrahydro-pyran-4-yloxy)-1,3-dihydro-isoindol-2-yl]-[5-methanesulfonyl-2-(2,2,3,3,3-pentafluoro-propoxy)-phenyl]-methanone] | 0.007 µM |
| CC(C)Oc1ccc(S(C)(=O)=O)cc1C(=O)N1Cc2ccc(OC3CCOCC3)cc2C1 [Example 373, (2-Isopropoxy-5-methanesulfonyl-phenyl)-[5-(tetrahydro-pyran-4-yloxy)-1,3-dihydro-isoindol-2-yl]-methanone] | 0.015 µM |
| CS(=O)(=O)c1ccc(OCC(F)(F)C(F)(F)F)c(C(=O)N2Cc3ccc(C4CCCOC4)cc3C2)c1 (racemic) [Example 364, rac-[5-Methanesulfonyl-2-(2,2,3,3,3-pentafluoro-propoxy)-phenyl]-[5-(tetrahydro-pyran-3-yl)-1,3-dihydro-isoindol-2-yl]-methanone] | 0.005 µM |
